Laboratory results published in patent US20070173462A1, “Treatment of diseases associated with the use of antibiotics” (Optimer Pharmaceuticals, Inc., priority 2004, published 2007).
Converted amounts (≈) assume the structure as drawn. Like-named read-outs stand apart in the source and are kept apart here.

Columns and labels:
Assay type in all cases: cell-based
Proteus mirabilis = experiment: microbe, parasite or virus in culture; conditions: clinical gastrointestinal isolates, n=10
Pseudomonas aeruginosa = experiment: microbe, parasite or virus in culture; conditions: clinical gastrointestinal isolates, n=10
C. sordellii = experiment: microbe, parasite or virus in culture; conditions: clinical isolates, n=5
Other Clostridium sp. = experiment: microbe, parasite or virus in culture; conditions: Clostridium; clinical isolates, n=11
Bacteroides sp. = experiment: MIC, ATCC laboratory strains (NCCLS guidelines); conditions: n=5
Protocol: (§1) The activity of Compound I was tested against laboratory strains of different species of bacteria using NCCLS antimicrobial susceptibility testing guidelines. […] Including MRSA and Enterococcus sp. Including VRE (Table. 2).

Helicobacter sp. = experiment: MIC, ATCC laboratory strains (NCCLS guidelines); conditions: n=1
Protocol: as §1

Enterobacteriaceae. = experiment: MIC, ATCC laboratory strains (NCCLS guidelines); conditions: n=10
Protocol: as §1

[1] = tested on: Anaerobic Gram positive cocci; experiment: MIC, ATCC laboratory strains (NCCLS guidelines); conditions: n=4
Protocol: as §1

Moraxella sp. = experiment: MIC, ATCC laboratory strains (NCCLS guidelines); conditions: n=2, in µg/mL
Protocol: as §1

Fusobacterium sp. = experiment: MIC, ATCC laboratory strains (NCCLS guidelines); conditions: n=1
Protocol: as §1

Micrococcus sp. = experiment: MIC, ATCC laboratory strains (NCCLS guidelines)
Protocol: as §1

Clostridium sp. = experiment: MIC, ATCC laboratory strains (NCCLS guidelines)
Protocol: as §1

Neisseria sp. = experiment: MIC, ATCC laboratory strains (NCCLS guidelines); conditions: n=3, in µg/mL
Protocol: as §1

Bacillus sp. = experiment: MIC, ATCC laboratory strains (NCCLS guidelines); conditions: n=2
Protocol: as §1

[2] = tested on: Staphylococcus sp. (incl. MRSA); experiment: MIC, ATCC laboratory strains (NCCLS guidelines)
Protocol: as §1

Streptococcus sp. = experiment: MIC, ATCC laboratory strains (NCCLS guidelines); conditions: n=5, in µg/mL
Protocol: as §1

[3] = tested on: Enterococcus sp. (incl. VRE); experiment: MIC, ATCC laboratory strains (NCCLS guidelines)
Protocol: as §1

Citrobacter sp. = experiment: MIC, ATCC laboratory strains (NCCLS guidelines); conditions: n=2
Protocol: as §1

C. glycolicum = experiment: microbe, parasite or virus in culture; conditions: clinical isolates, n=9
Veillonella sp. = experiment: microbe, parasite or virus in culture; conditions: clinical gastrointestinal isolates, n=10
C. clostridioforme = experiment: organism not typed; conditions: clinical isolates, n=5
Klebsiella sp. = experiment: microbe, parasite or virus in culture; conditions: clinical gastrointestinal isolates, n=10
Enterococcus sp. = experiment: microbe, parasite or virus in culture; conditions: clinical gastrointestinal isolates, n=22
C. perfringens = experiment: microbe, parasite or virus in culture
[4] = tested on: Bacteroides fragilis group; experiment: microbe, parasite or virus in culture; conditions: Bacteroides fragilis; clinical gastrointestinal isolates, n=54
Propionibacterium sp. = experiment: MIC, clinical isolates (Table 3); conditions: n=16
Source text: (§2) Compound I was additionally tested against anaerobic clinical isolates and against aerobic bacteria. […] The compound was also active against clinical strains of Staphylococcus sp. and Enterococcus sp.

Enterobacteiaceae = experiment: MIC, clinical isolates (Table 3); conditions: n=28
Source text: as §2

C. ramosum = experiment: microbe, parasite or virus in culture; conditions: Thomasclavelia ramosa; clinical isolates, n=10
[5] = tested on: Anaerobic Gram positive cocci; experiment: organism not typed; conditions: clinical gastrointestinal isolates, n=49
C. difficile = experiment: microbe, parasite or virus in culture; conditions: clinical isolates, n=23
C. bolteae = experiment: microbe, parasite or virus in culture; conditions: Enterocloster bolteae; clinical isolates, n=6
Enterobacter sp. = experiment: microbe, parasite or virus in culture; conditions: clinical gastrointestinal isolates, n=20
[6] = tested on: Non-spore forming Gram positive rods; experiment: organism not typed; conditions: clinical gastrointestinal isolates, n=64
Clostridium difficile = experiment: MIC, 207 clinical isolates of C. difficile
Source text: as §2

## CCc1c(Cl)c(O)c(Cl)c(O)c1C(=O)O[C@H]1[C@H](O)[C@H](OC)[C@H](OC/C2=C\C=C\C[C@H](O)/C(C)=C/[C@H](CC)C(O[C@@H]3OC(C)(C)[C@@H](OC(=O)C(C)C)[C@H](O)[C@@H]3O)/C(C)=C/C(C)=C/C[C@@H](C(C)O)OC2=O)O[C@@H]1C (stereo partly drawn) [Compound I]
Proteus mirabilis; Proteus mirabilis
  MIC50: > 256 µg/mL
  MIC90: > 256 µg/mL
Proteus mirabilis
  Range (MIC): >256 µg/mL
Pseudomonas aeruginosa
  MIC50: > 256 µg/mL
  MIC90: > 256 µg/mL
C. sordellii; Paraclostridium sordellii
  MIC50: 0.062 µg/mL (≈ 0.0586 µM)
  MIC90: 0.062 µg/mL (≈ 0.0586 µM)
C. sordellii
  Range (MIC): 0.062 µg/mL
Other Clostridium sp.
  MIC50: 32 µg/mL (≈ 30.2 µM)
  MIC90: 1020 µg/mL (≈ 968 µM)
Bacteroides sp.
  Range (MIC): > 32 µg/mL
Helicobacter sp.
  Range (MIC): > 32 µg/mL
Enterobacteriaceae.
  Range (MIC): > 32 µg/mL
[1]
  Range (MIC): ≦0.06-1
Moraxella sp.
  Range (MIC): 1-2
Fusobacterium sp.
  Range (MIC): > 32 µg/mL
Micrococcus sp.; ATCC laboratory strains, n=4
  Range (MIC): ≦0.125
Micrococcus sp.; laboratory strains
  activity (in words): excellent activity
Clostridium sp.; ATCC laboratory strains, n=4
  Range (MIC): ≦0.015-0.0625
Clostridium sp.; laboratory strains
  activity (in words): excellent activity
Neisseria sp.
  Range (MIC): 8-64
Bacillus sp.
  Range (MIC): 1 µg/mL
[2]; ATCC laboratory strains, n=6, in µg/mL
  Range (MIC): 1-16
[2]; laboratory strains, including MRSA
  activity (in words): moderate activity
Streptococcus sp.
  Range (MIC): 16-32
[3]; ATCC laboratory strains, n=4
  Range (MIC): 4 µg/mL
[3]; laboratory strains, including VRE
  activity (in words): moderate activity
Citrobacter sp.
  Range (MIC): > 64 µg/mL
C. glycolicum; Terrisporobacter glycolicus
  MIC50: 0.062 µg/mL (≈ 0.0586 µM)
  MIC90: 1 µg/mL (≈ 0.945 µM)
C. glycolicum
  Range (MIC): 0.062 to 1 µg/mL
Veillonella sp.; Veillonella
  MIC50: 32 µg/mL (≈ 30.2 µM)
  MIC90: 128 µg/mL (≈ 121 µM)
Veillonella sp.
  Range (MIC): 16 to 128 µg/mL
C. clostridioforme
  MIC50: 4 µg/mL (≈ 3.78 µM)
  MIC90: > 1020 µg/mL
Klebsiella sp.; Klebsiella
  MIC50: > 256 µg/mL
  MIC90: > 256 µg/mL
Klebsiella sp.
  Range (MIC): >256 µg/mL
Enterococcus sp.; Enterococcus
  MIC50: 8 µg/mL (≈ 7.56 µM)
  MIC90: 8 µg/mL (≈ 7.56 µM)
Enterococcus sp.
  Range (MIC): 0.5-16^ μg/mL
C. perfringens; Clostridium perfringens
  MIC50: 0.062 µg/mL (≈ 0.0586 µM)
  MIC90: 0.062 µg/mL (≈ 0.0586 µM)
C. perfringens; clinical isolates, n=14
  Range (MIC): 0.062 µg/mL
[4]
  MIC50: 512 µg/mL (≈ 484 µM)
  MIC90: > 1020 µg/mL
Propionibacterium sp.
  MIC50: 4 µg/mL (≈ 3.78 µM)
Enterobacteiaceae
  MIC50: > 64 µg/mL
  Range (MIC): > 64 µg/mL
C. ramosum
  MIC50: > 1020 µg/mL
  MIC90: > 1020 µg/mL
[5]
  MIC50: 0.5 µg/mL (≈ 0.473 µM)
  MIC90: 2 µg/mL (≈ 1.89 µM)
  Range (MIC): 0.06 to 1024 µg/mL
C. difficile; Clostridioides difficile
  MIC50: 0.12 µg/mL (≈ 0.113 µM)
  MIC90: 0.25 µg/mL (≈ 0.236 µM)
C. difficile
  Range (MIC): 0.062 to 2 µg/mL
C. bolteae
  MIC50: > 1020 µg/mL
  MIC90: > 1020 µg/mL
Enterobacter sp.; Enterobacter
  MIC50: > 256 µg/mL
  MIC90: > 256 µg/mL
Enterobacter sp.
  Range (MIC): >256 µg/mL
[6]
  MIC50: 1 µg/mL (≈ 0.945 µM)
  MIC90: 32 µg/mL (≈ 30.2 µM)
Clostridium difficile; Clostridioides difficile, clinical isolates, n=207
  MIC90: 0.008 µg/mL (≈ 0.00756 µM)
Clostridium difficile; Clostridioides difficile, clinical isolates, n=207, read-out: MIC50
  MIC50: 0.0019 µg/mL (≈ 0.0018 µM)
Clostridium difficile; clinical isolates, n=207
  MIC50: 0.002 µg/mL (≈ 0.00189 µM)
Clostridium difficile; panel of 207 C. difficile clinical isolates
  sensitivity of isolates (in words): very sensitive
